Changes are numbered by the printed parent chain.
How the values were obtained:
PfENT1 F92I = biological target: T1, PfENT1 F92I (Plasmodium falciparum, UniProt Q8IDM6, F92I); test: [3H]uridine uptake inhibition by purines in PfENT1-SNP-expressing yeast; format: cell-based
T1 sequence (Q8IDM6 1-422 F92I): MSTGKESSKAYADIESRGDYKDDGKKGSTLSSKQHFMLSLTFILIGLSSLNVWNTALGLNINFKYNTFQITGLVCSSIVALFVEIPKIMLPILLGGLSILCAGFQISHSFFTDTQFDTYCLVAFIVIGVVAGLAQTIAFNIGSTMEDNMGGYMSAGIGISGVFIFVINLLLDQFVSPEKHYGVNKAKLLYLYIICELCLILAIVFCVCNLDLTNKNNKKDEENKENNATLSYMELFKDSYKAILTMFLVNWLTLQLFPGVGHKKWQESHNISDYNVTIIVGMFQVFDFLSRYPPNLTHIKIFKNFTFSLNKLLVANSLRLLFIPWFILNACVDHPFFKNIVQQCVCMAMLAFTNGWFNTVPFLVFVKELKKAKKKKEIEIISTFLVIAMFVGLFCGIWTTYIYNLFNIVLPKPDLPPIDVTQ

PfENT1 I418M = biological target: T2, PfENT1 I418M (Plasmodium falciparum, UniProt Q8IDM6, I418M); test: as above; format: cell-based
T2 sequence (Q8IDM6 1-422 I418M): T1 sequence (Q8IDM6 1-422 F92I) with I92F, I418M

Compound	IC50 (PfENT1 F92I) [µM]	IC50 (PfENT1 I418M) [µM]
Nc1ncnc2nc[nH]c12 [Adenine, adenine]	176 ± 35	221 ± 36
OC[C@H]1O[C@@H](n2cnc3c(O)ncnc32)[C@H](O)[C@@H]1O [Inosine, inosine]	51 ± 14	12 ± 2
O=c1[nH]cnc2nc[nH]c12 [Hypoxanthine, hypoxanthine]	207 ± 34	145 ± 7

— publication PMC9218960 (ACS infectious diseases, 2020)
